Data: patent publication US8916600B2, “Phenyl and benzodioxinyl substituted indazoles derivatives” (Astrazeneca AB, priority 2008, dated 2014)
Where two headings read alike, the source gives them in different places.

Experiments:
[1] = molecular target: Human Glucocorticoid Receptor (GR) (Homo sapiens (Human), UniProt P04150); assay: Human Glucocorticoid Receptor (GR) radioligand binding assay (competition with 3H-labeled Dexamethasone); conditions: full length GR, 7 nM 3H-dexamethasone, 2 h at room temperature; read-out: GR Hu Bind Filter Mean Control IC50
Experimental: Human Glucocorticoid Receptor (GR) Assay
The radioligand GR binding assay is based on a competition assay using ^3H-labeled Dexamethasone, Dexamethasone is known to bind in the ligand binding domain of GR and compete for binding with endogenous ligands like e.g. cortisol (Necela, 2003).
In the GR radioligand binding assay, test compounds were serially diluted in semi-log steps (10 concentrations) with a final concentration of 10 μM. Test compounds (1 μL) and controls (1 μL) in 100% DMSO were added to 96 Greiner V-bottom polypropylene plates. 0% control was 6.7% DMSO (final concentration in assay) and 100% control was 6.7 μM Dexamethasone.
The full length GR was diluted to a final concentration of 3.3% (0.495 mg/ml) in assay buffer (20 mM Tris-HCl, 1 mM EDTA, 10% (w/v) Glycerol, 20 mM Sodium molbydate, pH 7.4). 45 μL of GR was added to each well and the plates were incubated for 15 min at room temperature.
^3H-dexamethasone solution was diluted to a concentration of 70 nM in assay buffer (7 nM final assay concentration) and 5 μL was added to each well. The samples were mixed for 5 min using a plate shaker at 700 rpm, before incubation for 2 h at room temperature,
50 μL ice-cold charcoal solution (pH 7.4: 2% Charcoal, 0.2% Dextran T70 in 20 mM Tris-HCl, 1 mM EDTA and 20 mM Sodium molbydate) was'added to each well and the samples were mixed on plate shaker for 5 minutes.
The plate was then centrifuged for 1.5 min at 1500 rpm, the samples (80 μL) were transferred from each well to a filter plate (Millipore, 0.45 μm, MHVBN45) on a vacuum manifold and then collected into new plates (Greiner, 96 well white/transparent, 655095). The filter plate was washed once with 20 μl of water and then 100 μL of scintillation liquid was added to each well and mixed by incubation on plate shaker for 5 min. Radioactivity was measured in a 1450 Microbeta Trilux Reader (Wallac) counting cpm for 2 minutes per well. The data obtained from each replicate experiment were analysed using the software ActivityBase, version 5.4.3 (ID Business Solutions Ltd) and IC50 values were calculated. Ref: Necela, B M, Cidlowski, J A, Trends Pharmacol Sci, 24: 58, 2003

[2] = tested on: AP-1/TRE-activity in ChaGo-K-1 cells transfected with 5×TRE-LacZ; assay: Transrepression Reporter Gene Assay (TRE-LacZ transfected ChaGo-K-1 cells, PMA stimulated); type: cell-based, human; conditions: PMA 10 ng/ml, Dexamethasone 10^-6 M set as 100 percent control, read-out: Agonism TRE IC50
Experimental: Transrepression Reporter Gene Assay
The human bronchogenic carcinoma cell-line, ChaGo-K-1 (ATCC: HTB 168), were transfected with 5×TRE-LacZ (clone 16:15:5 s5), i.e. TRE transfected cells, to measure transrepression activity of the selected compounds. Before use, the cells were grown for one to two weeks in selection medium containing 0.7 mg geneticin (G418)/ml medium. The cells were cultured at 37° C., 5% CO2 and 100% humidity in 96 well microtiter plates in RPMI-medium complemented with 10% fetal calf serum, 1% non-essential amino acids and 1% sodium pyruvate. The cells were passaged once weekly.
The TRE transfected cells were seeded in 96 well plates with 25-30 000 cells/well and grown for 72-96 h, to reach about 80% confluence. To stimulate the upregulation of the AP-1/TRE-activity, the cells were stimulated with 10 ng/ml Phorbol Myristate acetate (PMA) 3-5 h prior to addition of compounds. The PMA was present during the whole experiment. The TRE mediated effects (transrepression) in the transfected ChagGo-K-1 cells was measured as downregulation of β-galactosidase activity. The β-galactosidase activity for the transrepression experiments was measured by a fluorometric assay performed in microtiter plates. Cells were washed once in PBS. 180 μl of a reaction mixture containing 5 parts of Z-buffer and one part 4-methylumbelliferyl-β-D-galactosidase (MUG)-solution was then added (150 μl Z-buffer [18 μl 0.6 M Na2HPO4, 12 μl 0.6 M NaH2PO4, 7.2 μl 0.25 M KCl, 18 μl 0.01 M MgSO4, 1.8 μl 10% Triton X-100, 93 μl H2O]+30 μl 3 mM 4-methylumbelliferyl-[…]). After 60 min incubation at 37° C., 70 μl stop buffer was added to each well and the fluorescence was read in a fluorometer (Spectramax Gemini) with emission filter at 460 nm and excitation filter at 360 nm. The TRE activity was calculated as the relative activity compared to cells not treated with compounds. Inhibition of β-galactosidase by the compounds is expressed as percent inhibition compared to Dexamethasone 10^−6 M set as a 100 percent control within each experiment and DMSO 0.1% set as background control. The effect of Dexamethasone is well documented in this system and was therefore chosen as a positive control for comparison of the potency and efficacy of the compounds.

[3] = Homo sapiens, ChaGo-K-1, downregulation of β-galactosidase activity

Chain of Human Glucocorticoid Receptor (GR) (P04150 whole entry): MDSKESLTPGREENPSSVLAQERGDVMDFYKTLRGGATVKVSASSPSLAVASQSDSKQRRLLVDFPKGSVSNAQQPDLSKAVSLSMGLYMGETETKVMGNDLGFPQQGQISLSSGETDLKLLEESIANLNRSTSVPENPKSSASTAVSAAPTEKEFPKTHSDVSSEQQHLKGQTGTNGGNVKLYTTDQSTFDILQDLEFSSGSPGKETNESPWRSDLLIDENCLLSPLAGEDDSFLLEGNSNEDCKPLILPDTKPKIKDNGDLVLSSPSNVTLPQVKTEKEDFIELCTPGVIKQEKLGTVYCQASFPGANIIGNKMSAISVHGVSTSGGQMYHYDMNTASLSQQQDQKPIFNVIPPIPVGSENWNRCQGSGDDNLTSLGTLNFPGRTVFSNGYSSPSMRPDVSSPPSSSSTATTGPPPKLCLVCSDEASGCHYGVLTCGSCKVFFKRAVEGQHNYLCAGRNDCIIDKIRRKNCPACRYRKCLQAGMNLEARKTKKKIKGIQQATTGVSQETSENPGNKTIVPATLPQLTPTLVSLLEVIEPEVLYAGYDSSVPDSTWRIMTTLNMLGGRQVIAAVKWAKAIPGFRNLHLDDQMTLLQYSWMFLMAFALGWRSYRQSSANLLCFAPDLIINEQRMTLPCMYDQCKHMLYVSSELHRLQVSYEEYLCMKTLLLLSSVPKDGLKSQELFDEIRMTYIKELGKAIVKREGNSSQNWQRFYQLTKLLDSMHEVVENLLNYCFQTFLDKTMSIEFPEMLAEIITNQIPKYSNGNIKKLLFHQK

Row | Structure (SMILES) | IC50 [1] | IC50 [2, 3] | IC50 ([2]; downregulation of β-galactosidase activity)
1 | C[C@H](NC(=O)C(C)(F)F)[C@H](Oc1ccc2c(cnn2-c2cccc(C(=O)N[C@H]3CC[S+]([O-])C3)c2)c1)c1ccc2c(c1)OCOC2 (single isomer, unassigned) [Example 15] | 3.64 nM | 0.499 nM | 
2 | C[C@H](NC(=O)C(C)(F)F)[C@H](Oc1ccc2c(cnn2-c2cccc(C(=O)N[C@@H]3CCC[C@@H]3O)c2)c1)c1ccc2c(c1)OCOC2 [Example 14, 3-[5-({(1R,2S)-1-(4H-1,3-benzodioxin-7-yl)-2-[(2,2-difluoropropanoyl)amino]propyl}oxy)-1H-indazol-1-yl]-N-[(1R,2S)-2-hydroxycyclopentyl]benzamide] | 1.75 nM | 0.145 nM | 
3 | C[C@H](NC(=O)C(C)(F)F)[C@H](Oc1ccc2c(cnn2-c2cccc(C(=O)N[C@@H]3CCC[C@@H]3O)c2)c1)c1ccc2c(c1)OCCO2 [Example 10, 3-(5-{[(1R,2S)-2-[(2,2-difluoropropanoyl)amino]-1-(2,3-dihydro-1,4-benzodioxin-6-yl)propyl]oxy}-1H-indazol-1-yl)-N-[(1R,2S)-2-hydroxycyclopentyl]benzamide] | 0.647 nM | 0.112 nM | 
4 | C[C@H](NC(=O)C(C)(F)F)[C@H](Oc1ccc2c(cnn2-c2cccc(C(=O)NC3CCCC3)c2)c1)c1ccc2c(c1)OCOC2 [Example 8, 3-[5-({(1R,2S)-1-(4H-1,3-benzodioxin-7-yl)-2-[(2,2-difluoropropanoyl)amino]propyl}oxy)-1H-indazol-1-yl]-N-cyclopentylbenzamide] | 0.796 nM | 0.388 nM | 
5 | C[C@H](NC(=O)C(C)(F)F)[C@H](Oc1ccc2c(cnn2-c2cccc(C(=O)NC3CCCC3)c2)c1)c1ccc2c(c1)OCCO2 [Example 7, N-cyclopentyl-3-(5-{[(1R,2S)-2-[(2,2-difluoropropanoyl)amino]-1-(2,3-dihydro-1,4-benzodioxin-6-yl)propyl]oxy}-1H-indazol-1-yl)benzamide] | 1.3 nM | 0.163 nM | 
6 | C[C@H](NC(=O)C(C)(F)F)[C@H](Oc1ccc2c(cnn2-c2cccc(C(=O)N[C@H]3CC[S+]([O-])C3)c2)c1)c1ccc2c(c1)OCOC2 (single isomer, unassigned) [Example 16] | 4.27 nM |  | 0.6 nM

Second part, the compound after the results:

Row | IC50 [1] | IC50 [2, 3] | IC50 ([2]; downregulation of β-galactosidase activity) | Structure (SMILES)
7 | 0.996 nM | 0.754 nM |  | C[C@H](NC(=O)C(C)(F)F)[C@H](Oc1ccc2c(cnn2-c2cccc(C(=O)NCc3ccccc3)c2)c1)c1ccc2c(c1)OCOC2 [Example 17, 3-[5-({(1R,2S)-1-(4H-1,3-benzodioxin-7-yl)-2-[(2,2-difluoropropanoyl)amino]propyl}oxy)-1H-indazol-1-yl]-N-benzylbenzamide]
8 |  | 0.344 nM |  | C[C@H](NC(=O)C(C)(F)F)[C@H](Oc1ccc2c(cnn2-c2cccc(C(=O)N[C@@H]3CCS(=O)(=O)C3)c2)c1)c1ccc2c(c1)OCOC2 [Example 3, 3-[5-({(1R,2S)-1-(4H-1,3-Benzodioxin-7-yl)-2-[(2,2-difluoropropanoyl)amino]propyl}oxy)-1H-indazol-1-yl]-N-[(3R)-1,1-dioxidotetrahydrothiophen-3-yl]benzamide]
9 |  | 0.733 nM |  | C[C@H](NC(=O)C(C)(F)F)[C@H](Oc1ccc2c(cnn2-c2cccc(C(=O)N[C@H]3CCS(=O)(=O)C3)c2)c1)c1ccc2c(c1)OCOC2 [Example 4, 3-[5-({(1R,2S)-1-(4H-1,3-benzodioxin-7-yl)-2-[(2,2-difluoropropanoyl)amino]propyl}oxy)-1H-indazol-1-yl]-N-[(3S)-1,1-dioxidotetrahydrothiophen-3-yl]benzamide]
10 | 3.44 nM | 0.552 nM |  | C[C@H](NC(=O)C(C)(F)F)[C@H](Oc1ccc2c(cnn2-c2cccc(C(=O)N[C@H]3CCC[C@@H]3O)c2)c1)c1ccc2c(c1)OCOC2 [Example 18, 3-[5-({(1R,2S)-1-(4H-1,3-benzodioxin-7-yl)-2-[(2,2-difluoropropanoyl)amino]propyl}oxy)-1H-indazol-1-yl]-N-[(1S,2S)-2-hydroxycyclopentyl]benzamide]
11 | 2.15 nM | 0.517 nM |  | CC[C@@H](O)CNC(=O)c1cccc(-n2ncc3cc(O[C@H](c4ccc5c(c4)OCOC5)[C@H](C)NC(=O)C(C)(F)F)ccc32)c1 [Example 11, 3-[5-({(1R,2S)-1-(4H-1,3-benzodioxin-7-yl)-2-[(2,2-difluoropropanoyl)amino]propyl}oxy)-1H-indazol-1-yl]-N-[(2R)-2-hydroxybutyl]benzamide]
